Results published in a compilation of properties of binary mixtures (doi:10.1021/je7001804).

Test: xn = mol fraction of the nth substance listed
Details: 101 kPa

CC[n+]1ccn(C)c1.O=S(=O)([O-])C(F)(F)F + CCO
speed of sound [m/s]
Details | 278.15 K | 288.15 K | 298.15 K | 308.15 K | 318.15 K | 328.15 K
x2 = 0.0508 | 1475.9 | 1452.2 | 1429.4 | 1407 | 1385.2 | 1363.9
x2 = 0.0983 | – | – | 1422.7 | 1400.4 | – | 1357.6
x2 = 0.1483 | 1461.9 | 1438.3 | – | 1393.1 | 1371.1 | 1349.8
x2 = 0.198 | – | 1430.7 | – | – | – | –
x2 = 0.3072 | 1435.9 | – | 1389.3 | 1366.7 | 1344.6 | –
x2 = 0.4068 | 1416.2 | 1392.4 | 1369.2 | 1346.4 | 1323.9 | 1301.8
x2 = 0.4985 | 1394.8 | 1370.6 | 1346.9 | 1323.6 | – | –
x2 = 0.5999 | 1366.8 | – | 1318 | 1294.2 | – | 1247.7
x2 = 0.6991 | – | 1308.5 | 1283.7 | 1259.2 | 1235.1 | 1211.2
x2 = 0.8001 | – | – | 1241.7 | 1215.7 | 1189.9 | 1164.3
x2 = 0.8497 | 1273.5 | 1245.6 | 1218.2 | – | 1164.7 | 1138.4
x2 = 0.9 | 1252.7 | 1223.1 | – | – | 1137.5 | –
x2 = 0.9501 | 1233 | 1201.1 | 1170.1 | 1139.4 | 1109.1 | 1079.2

CC[n+]1ccn(C)c1.O=S(=O)([O-])C(F)(F)F + CCCO
speed of sound [m/s]
Details | 278.15 K | 288.15 K | 298.15 K | 308.15 K | 318.15 K | 328.15 K | 338.15 K
x2 = 0.049 | 1475.1 | 1451.2 | 1428.3 | 1405.9 | – | 1362.5 | 1341.4
x2 = 0.1095 | 1465.8 | 1441.9 | 1419 | – | 1374.5 | – | 1331.7
x2 = 0.1497 | 1459 | 1435.5 | 1412.7 | 1390.3 | 1368.2 | – | 1325.3
x2 = 0.2004 | 1450.3 | 1426.7 | – | – | 1359.3 | 1337.6 | 1316.5
x2 = 0.3 | 1432.3 | 1408.4 | 1385.2 | 1362.3 | 1340 | 1317.9 | 1296.2
x2 = 0.3993 | – | 1388 | 1364.3 | 1341.1 | 1318.4 | 1295.9 | 1273.9
x2 = 0.499 | 1389.2 | 1364.6 | 1340.5 | 1316.9 | 1293.6 | 1270.7 | 1248.1
x2 = 0.6007 | 1363.1 | 1337.9 | 1313.4 | 1289.2 | – | 1241.7 | 1218.3
x2 = 0.6998 | 1335.8 | – | 1284.3 | – | 1234.2 | 1209.5 | 1185
x2 = 0.7996 | 1308.3 | – | 1253.7 | 1227 | 1200.5 | 1174.3 | 1148.2
x2 = 0.8496 | 1296 | 1267.3 | 1239.2 | 1211.4 | 1183.8 | 1156.5 | 1129.3
x2 = 0.8999 | 1286.3 | 1255.9 | 1226.3 | 1197.1 | 1168.1 | 1139.2 | –
x2 = 0.9499 | 1279.8 | 1247.3 | 1215.6 | – | – | – | 1092

CC[n+]1ccn(C)c1.O=S(=O)([O-])C(F)(F)F + O
speed of sound [m/s]
Details | 278.15 K | 288.15 K | 298.15 K | 308.15 K | 318.15 K | 328.15 K | 338.15 K
x1 = 0.0178 | 1510.5 | 1529 | 1541.8 | 1549.8 | – | 1553.1 | 1548.9
x2 = 0.0502 | 1482.9 | 1459.7 | 1437.1 | 1415 | 1393.3 | 1371.8 | –
x2 = 0.1058 | 1484.8 | 1461.7 | 1439.2 | – | 1395.5 | – | 1352.9
x2 = 0.1504 | 1486.6 | – | 1441 | 1418.9 | 1397 | – | 1354.2
x2 = 0.249 | – | 1468.2 | 1445.9 | 1424 | 1402.3 | 1380.8 | 1359.5
x2 = 0.3004 | 1494 | 1471.3 | 1449.1 | 1427.2 | – | – | –
x2 = 0.3524 | – | 1474.8 | 1452.7 | 1430.8 | 1409.2 | – | 1366.2
x2 = 0.3961 | – | 1478.3 | 1456.2 | 1434.4 | 1412.7 | 1391.2 | 1369.7
x2 = 0.4505 | 1505.3 | 1483 | – | 1439.3 | 1417.7 | 1396.2 | 1374.7
x2 = 0.5024 | 1510.7 | – | 1466.7 | – | 1423.4 | 1401.7 | 1380
x2 = 0.5502 | 1516.2 | 1494.3 | 1472.6 | 1451 | 1429.3 | – | –
x2 = 0.6 | – | 1501.1 | 1479.6 | 1458.1 | – | 1414.9 | 1393
x2 = 0.6502 | 1530.5 | 1509.2 | 1488 | 1466.7 | 1445.3 | 1423.6 | 1401.7
x2 = 0.702 | 1539.8 | 1519.2 | 1498.4 | – | 1456.1 | 1434.6 | 1412.9
x2 = 0.7493 | 1549 | 1529.2 | 1509.1 | – | 1467.8 | 1446.5 | 1424.7
x2 = 0.7998 | – | – | 1522.5 | 1503.1 | 1483 | 1462.2 | 1440.7
x2 = 0.8499 | 1569.5 | 1554.1 | 1537.6 | 1520.1 | 1501.5 | 1482 | –
x2 = 0.8996 | – | 1564.9 | 1552.9 | 1539.1 | 1523.7 | 1506.7 | 1488.2
x2 = 0.9498 | – | 1563.7 | 1561.1 | 1555.7 | 1547.7 | 1537.1 | 1524.2

CC[n+]1ccn(C)c1.O=S(=O)([O-])C(F)(F)F + CO
speed of sound [m/s]
Details | 278.15 K | 288.15 K | 298.15 K | 308.15 K | 318.15 K
x2 = 0.0511 | 1477.5 | 1454 | 1431.1 | 1408.8 | 1387
x2 = 0.1016 | 1472 | 1448.7 | – | 1403.7 | 1382
x2 = 0.1557 | 1466.4 | 1443 | – | 1398 | 1376.2
x2 = 0.2035 | – | – | 1414.4 | 1392 | 1370.1
x2 = 0.3006 | 1447.8 | – | 1401.5 | 1379.1 | 1357.3
x2 = 0.3988 | 1432.7 | – | 1386 | 1363.4 | 1341.2
x2 = 0.5074 | 1411.3 | – | – | 1341.7 | 1319.4
x2 = 0.5993 | 1388.7 | 1364.7 | 1341.2 | 1318.2 | 1295.5
x2 = 0.6995 | 1356.5 | 1332 | 1308 | – | 1261.2
x2 = 0.8001 | 1312.5 | 1287.1 | 1262.1 | – | 1213.5
x2 = 0.8498 | 1285 | 1258.6 | 1232.8 | 1207.4 | 1182.5
x2 = 0.8995 | 1253.3 | 1225.3 | 1198 | 1171.2 | 1144.8
x2 = 0.9495 | – | 1186 | – | – | 1099.2
